# Laboratory results from ChEMBL document CHEMBL5058564, “EUbOPEN Chemogenomics Library 2 (Incucyte)” (2022).
# How the values were obtained:
# Type in all cases: toxicity, cell-based
# HEK-293T = test: Incucyte cell viability with HEK293T; settings: human, 10 µM, compound concentration 10 uM
# U2OS = test: Incucyte cell viability with U2OS; settings: human, 10 µM, compound concentration 10 uM
# Fibroblast = test: Incucyte cell viability with human fibroblast; settings: 10 µM, compound concentration 10 uM
# [1] = 0 h, replicate number 2, timepoint 0 hours
# [2] = 12 h, replicate number 1, timepoint 12 hours
# [3] = 18 h, replicate number 1, timepoint 18 hours
# [4] = 24 h, replicate number 1, timepoint 24 hours
# [5] = 0 h, replicate number 1, timepoint 0 hours
# [6] = 6 h, replicate number 1, timepoint 6 hours
# [7] = 12 h, replicate number 2, timepoint 12 hours
# [8] = 18 h, replicate number 2, timepoint 18 hours
# [9] = 24 h, replicate number 2, timepoint 24 hours
# [10] = 6 h, replicate number 2, timepoint 6 hours
# Further: unitless GR value; below 1 slowed growth and below 0 cell loss.
Compound,Growth Rate (HEK-293T; [1]),Growth Rate (HEK-293T; [2]),Growth Rate (HEK-293T; [3]),Growth Rate (HEK-293T; [4]),Growth Rate (U2OS; [5]),Growth Rate (U2OS; [6]),Growth Rate (U2OS; [2]),Growth Rate (U2OS; [3]),Growth Rate (U2OS; [8]),Growth Rate (U2OS; [4]),Growth Rate (Fibroblast; [1]),Growth Rate (Fibroblast; [6]),Growth Rate (Fibroblast; [10]),Growth Rate (Fibroblast; [2]),Growth Rate (Fibroblast; [7]),Growth Rate (Fibroblast; [8]),Growth Rate (Fibroblast; [4]),Growth Rate (Fibroblast; [9]),Growth Rate (HEK-293T; [6]),Growth Rate (HEK-293T; [9]),also measured
CO[C@H]1CNC[C@@H](OCC2CCC(F)(F)CC2)[C@@H]1Nc1ncc(-c2cncc(C)c2)c2cc(C)c(=O)[nH]c12,0.51,0.87,0.84,0.85,-0.36,0.62,0.39,0.7,0.97,0.53,0.95,0.63,0.24,0.16,0.53,0.64,0.1,0.73,–,–,Growth Rate (U2OS; [7]): 0.98; Growth Rate (U2OS; [9]): 1; Growth Rate (Fibroblast; [5]): 0.72; Growth Rate (Fibroblast; [3]): 0.28
Cc1ccccc1C#Cc1ccc(CCC(=O)O)cc1,0.37,0.72,0.73,0.74,0.25,0.52,0.67,0.7,0.92,0.77,0.93,–,0.07,–,0.32,0.35,–,0.31,0.63,0.62,Growth Rate (HEK-293T; [10]): 0.81; Growth Rate (HEK-293T; [7]): 0.75; Growth Rate (HEK-293T; [8]): 0.67; Growth Rate (U2OS; [10]): 0.9; Growth Rate (Fibroblast; [5]): 0.45
Cc1cc(CN)cc(C)c1-c1ncn(C)c1-c1ccnc2cc(F)ccc12,0.31,0.93,0.79,0.87,-0.16,0.54,0.64,0.92,0.73,0.79,0.5,0.31,–,0.5,0.83,0.64,0.09,0.58,0.86,0.92,Growth Rate (HEK-293T; [10]): 0.7; Growth Rate (HEK-293T; [7]): 0.96; Growth Rate (HEK-293T; [8]): 0.92; Growth Rate (U2OS; [1]): -0.67; Growth Rate (U2OS; [10]): 0.18; Growth Rate (U2OS; [7]): 0.55; Growth Rate (Fibroblast; [3]): 0.18
NC(=O)c1ccc(CNC(=O)NC[C@H]2CN(Cc3ccc(Cl)c(Cl)c3)CCO2)cc1,0.54,0.86,0.88,0.88,–,0.32,0.8,0.91,–,–,–,–,–,–,–,–,–,–,0.47,0.8,Growth Rate (HEK-293T; [8]): 1; Growth Rate (U2OS; [1]): 0.11; Growth Rate (Fibroblast; [5]): 0.21
CCn1c(-c2nc3cc(C(=O)N4CCCC(N)C4)ccc3n2C)cc2ccccc21.Cl (stereo unspecified),-1,0.44,0.73,0.83,-0.61,0.71,0.95,–,–,–,0.99,-0.75,0.43,-0.23,0.52,0.56,0.15,0.6,0.72,–,Growth Rate (Fibroblast; [3]): -0.08
COc1ccccc1N1CCN(CCCCNC(=O)c2ccc3ccccc3c2)CC1.Cl,0.97,–,0.54,0.56,0.06,0.51,0.58,0.77,0.97,0.81,-0.14,-0.59,0.14,0.23,-0.06,0.09,-0.24,–,0.59,0.66,Growth Rate (HEK-293T; [10]): 0.65; Growth Rate (HEK-293T; [7]): 0.83; Growth Rate (U2OS; [10]): 0.78; Growth Rate (U2OS; [7]): 0.96; Growth Rate (U2OS; [9]): 0.92; Growth Rate (Fibroblast; [5]): 0.79
CCCCCCCCCCCCCCC[C@@H](O)[C@@H](N)COP(=O)(O)O,0.71,0.48,0.51,0.63,–,–,0.64,–,–,–,0.12,-0.14,0.42,0.44,0.66,0.7,0.23,0.73,0.25,0.74,Growth Rate (HEK-293T; [7]): 0.76; Growth Rate (HEK-293T; [8]): 0.88; Growth Rate (Fibroblast; [3]): 0.43
